Laboratory results taken from patent US20180243298A1, “TRPV3 MODULATORS” (AbbVie Inc., priority 2015, published 2018).

Target: T1, human TRPV3 (Homo sapiens, UniProt Q8NET8)
T1 construct: expressed in transfected cells; host or cells: HEK293
T1 sequence (Q8NET8 1-790): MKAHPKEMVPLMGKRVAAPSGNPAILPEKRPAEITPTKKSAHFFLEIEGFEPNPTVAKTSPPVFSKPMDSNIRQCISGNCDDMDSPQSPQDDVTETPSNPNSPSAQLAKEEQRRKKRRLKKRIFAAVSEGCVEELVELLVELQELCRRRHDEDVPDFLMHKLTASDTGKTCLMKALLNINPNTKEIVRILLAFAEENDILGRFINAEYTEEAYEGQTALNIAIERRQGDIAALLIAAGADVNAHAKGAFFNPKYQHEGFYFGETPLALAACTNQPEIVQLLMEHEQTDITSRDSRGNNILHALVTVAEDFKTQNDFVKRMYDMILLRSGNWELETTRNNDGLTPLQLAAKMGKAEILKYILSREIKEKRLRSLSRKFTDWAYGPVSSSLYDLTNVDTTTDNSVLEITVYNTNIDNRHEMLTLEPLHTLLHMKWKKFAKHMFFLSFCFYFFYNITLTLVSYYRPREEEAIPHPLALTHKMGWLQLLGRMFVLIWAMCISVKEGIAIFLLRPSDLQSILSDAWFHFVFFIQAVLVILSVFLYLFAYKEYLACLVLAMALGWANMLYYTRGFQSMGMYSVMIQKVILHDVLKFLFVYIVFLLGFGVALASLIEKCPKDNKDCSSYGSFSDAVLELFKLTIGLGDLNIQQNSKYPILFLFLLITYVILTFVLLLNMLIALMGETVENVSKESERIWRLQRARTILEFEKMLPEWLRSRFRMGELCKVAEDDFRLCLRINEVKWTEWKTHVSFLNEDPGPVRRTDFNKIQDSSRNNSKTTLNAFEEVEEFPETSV
Assay: Calcium flux assay (FLIPR TETRA), recombinant HEK293 cells expressing TRPV3, 2-APB response
Type: cell-based
Conditions: 2-APB at its EC80
Method in brief: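 Response is the peak fluorescence increase over baseline, as a percentage of the compound-free response to 2-APB at EC80. Calcium flux recorded on FLIPR TETRA in stable human or mouse TRPV3 HEK293 cells after 90–120 min Calcium-4 dye loading.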

SMILES: COc1ncnc(OC)c1C(=O)Nc1nc(C2CCC2)c(F)s1 [Example 101, N-(4-cyclobutyl-5-fluoro-1,3-thiazol-2-yl)-4,6-dimethoxypyrimidine-5-carboxamide]
- IC50: 50 to 100 nM

SMILES: COc1ncnc(OC)c1C(=O)Nc1nc(C2CCC2)c(C#N)s1 [Example 102, N-(5-cyano-4-cyclobutyl-1,3-thiazol-2-yl)-4,6-dimethoxypyrimidine-5-carboxamide]
- IC50: 100 to 500 nM

SMILES: COc1ncnc(OC)c1C(=O)Nc1nc(/C=C/C2CC2)cs1 [Example 103, N-{4-[(E)-2-cyclopropylethenyl]-1,3-thiazol-2-yl}-4,6-dimethoxypyrimidine-5-carboxamide]
- IC50: > 1000 nM

SMILES: COc1ncnc(OC)c1C(=O)Nc1nc(/C=C/C(C)(C)C)cs1 [Example 104, N-{4-[(1E)-3,3-dimethylbut-1-en-1-yl]-1,3-thiazol-2-yl}-4,6-dimethoxypyrimidine-5-carboxamide]
- IC50: > 1000 nM

SMILES: COc1ncnc(OC)c1C(=O)Nc1nc(CCC2CC2)cs1 [Example 105, N-[4-(2-cyclopropylethyl)-1,3-thiazol-2-yl]-4,6-dimethoxypyrimidine-5-carboxamide]
- IC50: 50 to 100 nM

SMILES: COc1ncnc(OC)c1C(=O)Nc1nc(/C=C/c2ccc(F)cc2)cs1 [Example 106, N-{4-[(E)-2-(4-fluorophenyl)ethenyl]-1,3-thiazol-2-yl}-4,6-dimethoxypyrimidine-5-carboxamide]
- IC50: 500 to 1000 nM

SMILES: COc1ncnc(OC)c1C(=O)Nc1nc(CCc2ccc(F)cc2)cs1 [Example 107, N-{4-[2-(4-fluorophenyl)ethyl]-1,3-thiazol-2-yl}-4,6-dimethoxypyrimidine-5-carboxamide]
- IC50: 500 to 1000 nM

SMILES: COc1cc(F)ccc1-c1csc(NC(=O)c2c(OC)ncnc2OC)n1 [Example 108, N-[4-(4-fluoro-2-methoxyphenyl)-1,3-thiazol-2-yl]-4,6-dimethoxypyrimidine-5-carboxamide]
- IC50: 100 to 500 nM

SMILES: COc1ncnc(OC)c1C(=O)Nc1nc(-c2ccc(C(F)(F)F)cn2)c(S(=O)(=O)c2ccc(C)cc2)s1 [Example 109, 4,6-dimethoxy-N-[5-(p-tolylsulfonyl)-4-[5-(trifluoromethyl)-2-pyridyl]-1,3-thiazol-2-yl]pyrimidine-5-carboxamide]
- IC50: 100 to 500 nM

SMILES: COc1ncnc(OC)c1C(=O)Nc1nc(C(F)(F)F)c(S(=O)(=O)c2ccc(C)cc2)s1 [Example 110, 4,6-dimethoxy-N-[5-(p-tolylsulfonyl)-4-(trifluoromethyl)-1,3-thiazol-2-yl]pyrimidine-5-carboxamide]
- IC50: 100 to 500 nM

SMILES: COc1ncnc(OC)c1C(=O)Nc1nc(C(F)(F)F)c(S(=O)(=O)Cc2ccccc2)s1 [Example 111, N-[5-benzylsulfonyl-4-(trifluoromethyl)-1,3-thiazol-2-yl]-4,6-dimethoxy-pyrimidine-5-carboxamide]
- IC50: 500 to 1000 nM

SMILES: COc1ncnc(OC)c1C(=O)Nc1nc(C(F)(F)F)c([S+]([O-])Cc2ccccc2)s1 (stereo not drawn) [Example 112, N-(5-(benzylsulfinyl)-4-(trifluoromethyl)thiazol-2-yl)-4,6-dimethoxypyrimidine-5-carboxamide]
- IC50: > 1000 nM

SMILES: COc1ncnc(OC)c1C(=O)Nc1nc(-c2ccc(C(F)(F)F)cn2)c([S+](C)[O-])s1 (stereo not drawn) [Example 113, 4,6-dimethoxy-N-[5-methylsulfinyl-4-[5-(trifluoromethyl)-2-pyridyl]-1,3-thiazol-2-yl]pyrimidine-5-carboxamide]
- IC50: 500 to 1000 nM

SMILES: COc1ncnc(OC)c1C(=O)Nc1nc(-c2ccc(C(F)(F)F)cn2)c(S(C)(=O)=O)s1 [Example 114, 4,6-dimethoxy-N-[5-methylsulfonyl-4-[5-(trifluoromethyl)-2-pyridyl]-1,3-thiazol-2-yl]pyrimidine-5-carboxamide]
- IC50: 100 to 500 nM

SMILES: COc1ncnc(OC)c1C(=O)Nc1nc(C(F)(F)F)c(Sc2ccccc2)s1 [Example 115, 4,6-dimethoxy-N-[5-phenylsulfanyl-4-(trifluoromethyl)-1,3-thiazol-2-yl]pyrimidine-5-carboxamide]
- IC50: 50 to 100 nM

SMILES: COc1ncnc(OC)c1C(=O)Nc1nc(C(F)(F)F)c(C(C)(C)O)s1 [Example 116, N-[5-(2-hydroxypropan-2-yl)-4-(trifluoromethyl)-1,3-thiazol-2-yl]-4,6-dimethoxypyrimidine-5-carboxamide]
- IC50: > 1000 nM

SMILES: COc1ncnc(OC)c1C(=O)Nc1nc(C(F)(F)F)c(C2(O)CCOCC2)s1 [Example 117, N-[5-(4-hydroxytetrahydro-2H-pyran-4-yl)-4-(trifluoromethyl)-1,3-thiazol-2-yl]-4,6-dimethoxypyrimidine-5-carboxamide]
- IC50: > 1000 nM

SMILES: COc1ncnc(OC)c1C(=O)Nc1nc(C(F)(F)F)c(C2(F)CCOCC2)s1 [Example 118, N-[5-(4-fluorotetrahydro-2H-pyran-4-yl)-4-(trifluoromethyl)-1,3-thiazol-2-yl]-4,6-dimethoxypyrimidine-5-carboxamide]
- IC50: 500 to 1000 nM

SMILES: COc1ncnc(OC)c1C(=O)Nc1nc(C(F)(F)F)c(C2(O)CCC2)s1 [Example 119, N-[5-(1-hydroxycyclobutyl)-4-(trifluoromethyl)-1,3-thiazol-2-yl]-4,6-dimethoxypyrimidine-5-carboxamide]
- IC50: > 1000 nM

SMILES: COc1ncnc(OC)c1C(=O)Nc1nc(C(F)(F)F)c(C(O)c2ccccc2)s1 (stereo not drawn) [Example 120, N-{5-[hydroxy(phenyl)methyl]-4-(trifluoromethyl)-1,3-thiazol-2-yl}-4,6-dimethoxypyrimidine-5-carboxamide]
- IC50: 100 to 500 nM

SMILES: COc1ncnc(OC)c1C(=O)Nc1nc(C(F)(F)F)c(C(=O)c2ccccc2)s1 [Example 121, N-[5-benzoyl-4-(trifluoromethyl)-1,3-thiazol-2-yl]-4,6-dimethoxypyrimidine-5-carboxamide]
- IC50: 50 to 100 nM

SMILES: COc1ncnc(OC)c1C(=O)Nc1nc(C(F)(F)F)c(C(C)(O)c2ccccc2)s1 (stereo not drawn) [Example 122, N-[5-(1-hydroxy-1-phenylethyl)-4-(trifluoromethyl)-1,3-thiazol-2-yl]-4,6-dimethoxypyrimidine-5-carboxamide]
- IC50: < 50 nM

SMILES: COc1ncnc(OC)c1C(=O)Nc1nc(C(F)(F)F)c(C(O)C(C)(C)C)s1 (stereo not drawn) [Example 123, N-[5-(1-hydroxy-2,2-dimethylpropyl)-4-(trifluoromethyl)-1,3-thiazol-2-yl]-4,6-dimethoxypyrimidine-5-carboxamide]
- IC50: 100 to 500 nM

SMILES: COc1ncnc(OC)c1C(=O)Nc1nc(C(F)(F)F)c(C(=O)C(C)(C)C)s1 [Example 124, N-[5-(2,2-dimethylpropanoyl)-4-(trifluoromethyl)-1,3-thiazol-2-yl]-4,6-dimethoxypyrimidine-5-carboxamide]
- IC50: < 50 nM

SMILES: CO/N=C(\c1ccccc1)c1sc(NC(=O)c2c(OC)ncnc2OC)nc1C(F)(F)F [Example 125, 4,6-dimethoxy-N-{5-[(E)-(methoxyimino)(phenyl)methyl]-4-(trifluoromethyl)-1,3-thiazol-2-yl}pyrimidine-5-carboxamide]
- IC50: < 50 nM

SMILES: COc1ncnc(OC)c1C(=O)Nc1nc(C(F)(F)F)c(/C(=N/O)c2ccccc2)s1 [Example 126, N-{5-[(E)-(hydroxyimino)(phenyl)methyl]-4-(trifluoromethyl)-1,3-thiazol-2-yl}-4,6-dimethoxypyrimidine-5-carboxamide]
- IC50: < 50 nM

SMILES: COc1ncnc(OC)c1C(=O)Nc1nc(C(F)(F)F)c(C(=O)c2ccccn2)s1 [Example 127, 4,6-dimethoxy-N-[5-(pyridin-2-ylcarbonyl)-4-(trifluoromethyl)-1,3-thiazol-2-yl]pyrimidine-5-carboxamide]
- IC50: > 1000 nM
